Values of other authors in US20040208942A1, “Alpha lipoic acid based food supplement for increasing lean muscle mass and strength” (priority 2000, published 2004).

With `O=C(O)CCCCC1CCSS1` (stereo not drawn) [α lipoic acid] as the compound, how does the “body's utilization of blood sugar” value (type II diabetes) read?
Its value is “significantly increase”.

What about the “increase of the metabolic clearance rate of glucose” value (type II diabetics) of the same compound?
Its value is 50%.
